Laboratory results taken from patent publication US11351265B2, “Process for formulating an anionic agent” (Dicerna Pharmaceuticals, Inc., priority 2013, dated 2022).
Converted amounts (≈) assume the structure as drawn.

Experiment: Solubility of cholesterol in ethanol
Format: physicochemical
Settings: organic solvent or mixture, room temperature, absence of other lipids and/or sterols, read-out: solubility limit in ethanol
Excerpt: Thus, a process is provided for raising the amount of an original lipid, sterol and/or blend of lipid(s) and/or sterol(s) that may be solubilized in a solvent (e.g., an alcoholic solvent, e.g., ethanol) by pre-mixing other lipid(s), sterol(s) and/or blend of lipid(s) and/or sterol(s), as oils, powders and/or in solvent(s), before adding such a pre-mixture to the original solubility-limited lipid, sterol and/or blend of lipid(s), thereby effectively raising the solubility limit of the original lipid in the solvent. […] Without wishing to be bound by theory, it is believed that the newly discovered ability to provide high concentration solutions of lipids/sterols at such elevated concentrations enhances the homogeneity of a lipid-anionic agent particle population, as compared to the concentrations at which such lipids/sterols are routinely used within the particle formulation process.
The above-described process schematically exemplified in FIG. 1, which is also referred to herein as “2141”, was not only distinguished from other tested processes in the order of addition of DsiRNA-lipid complexes and additional lipids in ethanol, but also was distinguished from other processes by the concentration of lipids and sterols that were solubilized in the additional lipids in ethanol solution. […]

Question: With `CC(C)CCC[C@@H](C)[C@H]1CC[C@H]2[C@@H]3CC=C4C[C@@H](O)CC[C@]4(C)[C@H]3CC[C@]12C` [cholesterol] as the compound, how does the solubility read?
Answer: 10 to 11 mg/mL (≈ 25.9 to 28.4 mM)
